Test [1] concerns the target T1, Glutamate receptor ionotropic, AMPA (Rattus norvegicus, UniProt P19490+P19491+P19492+P19493). The test is described as follows: Inhibition of [3H]AMPA binding to Ionotropic glutamate receptor from rat whole brain.
Test [2] concerns the target T1, Glutamate receptor ionotropic, AMPA. The test is described as follows: The compound was tested for its ability to inhibit [3H]AMPA binding to Ionotropic glutamate receptor AMPA from rat whole brain.
For test [3], the species on record is Rattus norvegicus. The test is described as follows: The compound was tested for anti-KA-Induced Neurotoxicity in rat primary hippocampal cultures. It counts as functional. Conditions: Hippocampus.
Test [4] addresses Glutamate NMDA receptor. The test is described as follows: The compound was tested for its ability to inhibit [3H]Gly binding to N-methyl-D-aspartate glutamate receptor from rat whole brain.
Test [5] concerns the target Glutamate NMDA receptor. The test is described as follows: The compound was tested for its ability to inhibit [3H]Glu binding to N-methyl-D-aspartate glutamate receptor from rat whole brain.
Test [6] deals with Glutamate NMDA receptor. The test is described as follows: The compound was tested for its ability to inhibit [3H]Gly binding to N-methyl-D-aspartate glutamate receptor from rat whole brain.
For test [7], the species on record is Rattus norvegicus. The test is described as follows: The compound was tested for anti-KA-Induced Neurotoxicity in rat primary hippocampal cultures. It counts as functional. The conditions noted are these: Hippocampus.

In turn, `CCc1nnc2c(O)nc3cc([N+](=O)[O-])c(-n4ccnc4)cc3n12` came in with a Ki in test [1] of 48 nM. In turn, `CCCc1nnc2c(O)nc3cc([N+](=O)[O-])c(-n4ccnc4)cc3n12` had an inhibitory constant (Ki) in test [2] of 99 nM. On to `Cc1nccn1-c1cc2nc(O)c(O)nc2cc1[N+](=O)[O-]`, for which the Ki in test [1] is 390 nM. With `CCCCc1nnc2c(O)nc3cc([N+](=O)[O-])c(-n4ccnc4)cc3n12`, affinity in test [2] was put at a Ki of 70 nM.

As to `O=c1[nH]c2cc(-n3ccnc3)c([N+](=O)[O-])cc2[nH]c1=O` [YM-90K], the half-inhibitory concentration (IC50) in the test filed under Rattus norvegicus [3] came out at 810 nM.

Take `O=[N+]([O-])c1cc2nc(O)c3nccn3c2cc1-n1ccnc1`: the IC50 in the test filed under Rattus norvegicus [3] was 300 nM. Also, the Ki on Glutamate NMDA receptor [4] is > 300000 nM; at Glutamate NMDA receptor [5], > 300000 nM; in test [1] it was 57 nM. As for `CCc1cnc2c(O)nc3cc([N+](=O)[O-])c(-n4ccnc4)cc3n12`, the Ki in test [1] is 20 nM. The same measure, in the same setting: the result for `Cc1nccn1-c1cc2c(cc1[N+](=O)[O-])nc(O)c1ncc(C)n12` reads > 10000 nM.

`NS(=O)(=O)c1cccc2c1c([N+](=O)[O-])cc1nc(O)c(O)nc12` [NBQX] had an IC50 in the test filed under Rattus norvegicus [3] of 380 nM. For `Oc1nc2cc(C(F)(F)F)c(-n3ccnc3)cc2n2ccnc12`, the IC50 in the test filed under Rattus norvegicus [3] amounted to 320 nM. This compound displayed a Ki in test [1] of 66 nM.

For the compound `CCCc1nnc2c(O)nc3cc(-n4ccnc4)c([N+](=O)[O-])cc3n12`, in test [1], the inhibitory constant (Ki) is 6600 nM. The same measure, in the same setting: the result for `CCC1CN=C2C(=O)Nc3cc([N+](=O)[O-])c(-n4ccnc4)cc3N21` (configuration not stated) reads 150 nM. For the compound `CCCn1c(=O)c(=O)[nH]c2cc([N+](=O)[O-])c(-n3ccnc3)cc21`, the inhibitory constant (Ki) in test [1] came to 130 nM. For `Cc1nnc2c(O)nc3cc([N+](=O)[O-])c(-n4ccnc4)cc3n12`, the inhibitory constant (Ki) in test [1] was found to be 96 nM. For the compound `O=C1Nc2cc(-n3ccnc3)c([N+](=O)[O-])cc2C1=O`, the Ki in test [1] is > 100000 nM. Take `O=[N+]([O-])c1cc2nc(O)c3nncn3c2cc1-n1ccnc1`: in test [1], the inhibitory constant (Ki) worked out at 190 nM. With `O=c1[nH]c2cc([N+](=O)[O-])c(-n3ccnc3)cc2n(O)c1=O`, at Glutamate NMDA receptor [6], the affinity corresponds to a Ki of 4200 nM. Moreover, in the test filed under Rattus norvegicus [7], it took 310 nM to reach half-maximal inhibition (IC50).

By Ki is commonly meant a dissociation constant, usually derived from enzyme kinetics or from competition with a known ligand. Higher therefore signals weaker binding. Broadly, the IC50 is the point on the concentration scale where inhibition reaches its midpoint.
